Measured values published in patent US9598716B2, “Destructible surfactants and uses thereof” (Waters Technologies Corporation, priority 2002, dated 2017).

What was measured:
trypsin = assay: Trypsin activity assay (rate of hydrolysis of BAEE to BA, UV); format: biochemical; conditions: for Trypsin activity (%): 0.5 μg of trypsin in 50 mM ammonium bicarbonate, pH 7.9, no additive = 100
Procedure: Trypsin activity measurements were carried out by introducing 1 μg/ml of trypsin to 0.25 mM N-α-benzoyl-L-arginine ethyl ester (BAEE, pH 7.9) at room temperature. Changes in trypsin activity were plotted by measuring the rate of hydrolysis of BAEE to a UV active product, BA, at A 252 nm.

Glu-C = molecular target: T1, Glu-C (Staphylococcus aureus, UniProt P0C1U8); assay: Comparative digestion of myoglobin with Glu-C; format: biochemical; conditions: with ALS, no observable digestion without ALS
T1 construct: purchased Roche Diagnostics
T1 sequence (P0C1U8 69-336): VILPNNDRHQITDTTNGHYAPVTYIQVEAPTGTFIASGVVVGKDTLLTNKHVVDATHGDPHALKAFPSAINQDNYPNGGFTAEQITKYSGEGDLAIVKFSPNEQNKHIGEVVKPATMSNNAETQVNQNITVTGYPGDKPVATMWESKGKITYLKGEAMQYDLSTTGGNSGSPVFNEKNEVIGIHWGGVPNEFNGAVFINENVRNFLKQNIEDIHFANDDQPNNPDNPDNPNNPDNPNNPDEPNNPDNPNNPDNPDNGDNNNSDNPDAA
Procedure: (§1) Proteins (2-20 μM), indicated in Table 2, were solubilized in 50 mM NH4HCO3 or 0.1-0.25% (w/w) ALS before tryptic digestion. The trypsin to protein ratio used was 1-2%. The protein (˜17 μM) was solubilized with 8M urea or 0.25% ALS. After tryptic digestion, ALS was destroyed rapidly by addition of strong acid such as HCl or TFA. The by-products were removed by centrifugation prior to MS analysis. Protein digests were mass analyzed either by a MALDI.TOF mass spectrometer (M@LDI™ LR, Micromass UK Ltd) or separated by RP-HPLC (CapLC®, Waters Corporation) then interfaced to an orthogonal acceleration TOF mass spectrometer (LCT™, Micromass UK Ltd) via an electrospray ionization source.
(§2) Myoglobin comparative digestion was performed as in Example 3 (in the presence and absence of ALS), with the exchange of the following proteases for trypsin: • A. Asp-N (FIG. 4A) • B. Lys-C (FIG. 4B) • C. Glu-C (FIG. 4C) Digestions were performed for about 50 minutes. The enzymes were purchased from Roche Diagnostics. Analysis is shown in FIGS. 4A-4C, as indicated above. In each case, when no ALS was in the digestion solution, no observable digestion took place. However, with ALS, within about 50 minutes, the entire protein was consumed.

[1] = molecular target: T2, horse skeletal muscle myoglobin (Equus caballus, UniProt P68082); assay: Mass spectrometric detection of myoglobin treated with ALS or SDS (electrospray); conditions: 5 μM myoglobin with 0.1% surfactant; ALS degraded in 10% acetic acid for 16 hours
T2 construct: horse skeletal muscle myoglobin (Sigma. P/N M0630); purchased Sigma M0630; host or cells: horse skeletal muscle
T2 sequence (P68082 whole entry): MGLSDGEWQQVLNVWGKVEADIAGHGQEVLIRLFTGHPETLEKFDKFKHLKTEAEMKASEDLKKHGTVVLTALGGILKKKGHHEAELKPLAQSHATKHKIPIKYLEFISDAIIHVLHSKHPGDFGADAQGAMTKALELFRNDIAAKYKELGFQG
Procedure: Mass spectrometric detection was performed on myoglobin using a Platform LC (Micromass, Manchester, UK) with constant infusion. A stock solution of 50 μM horse skeletal muscle myoglobin (Sigma. P/N M0630) was prepared in 50/50 20 mM ammonium acetate, pH 5.1/acetonitrile (v/v). A stock solution of 1% SDS and 1% ALS were also prepared in both 50/50 ammonium acetate/acetonitrile, and 40/40/10 ammonium acetate/acetonitrile/glacial acetic acid. The surfactant stock solutions were both prepared fresh, and allowed to sit for at least 16 hours. To 100 μL of each of the surfactant stock solutions was added 100 μL of myoglobin stock and 800 μL 50/50 ammonium acetate/acetonitrile. Each solution was then drawn into a 1 mL syringe and placed in a syringe pump (Harvard Instruments). The solution was infused into the mass spectrometer at a flow rate of 20 μL/min. Mass spectrometer settings were as follows:
Gas flow rate: 340 L/h; Source temperature: 100° C., Capillary voltage: 3.46 kV; Cone voltage: 25 V; Ion energy: 0.6; Scan rate: 3.0 sec/scan; Scan range: 250-1600 amu.

[2] = pH 7
Description: After the chemical reaction proceeds, the surfactant of the present invention involved in enhancing the chemical reaction can be degraded, e.g., by contact with an acidic solution.

Lys-C = molecular target: T3, Lys-C (Lysobacter enzymogenes, UniProt Q7M135); assay: Comparative digestion of myoglobin with Lys-C; format: biochemical; conditions: with ALS, no observable digestion without ALS
T3 construct: purchased Roche Diagnostics
T3 sequence (Q7M135 whole entry): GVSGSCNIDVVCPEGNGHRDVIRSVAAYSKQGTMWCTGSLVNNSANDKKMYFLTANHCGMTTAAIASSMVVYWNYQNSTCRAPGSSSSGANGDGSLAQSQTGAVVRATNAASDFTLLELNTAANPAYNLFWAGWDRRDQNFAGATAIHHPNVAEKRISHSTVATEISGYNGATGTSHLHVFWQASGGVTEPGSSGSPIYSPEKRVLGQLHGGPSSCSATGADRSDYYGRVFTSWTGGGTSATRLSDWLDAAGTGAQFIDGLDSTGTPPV
Procedure: as §1, §2

Compound | Myoglobin signal in electrospray mass spectrum [1] | Trypsin activity (%) (trypsin; additive at 0.1%) | Trypsin activity (%) (trypsin; additive at 0.5%) | Trypsin activity (%) (trypsin; additive at 50%) | further results
NC(N)=O [Urea] |  |  |  |  | Trypsin activity (%) (trypsin; additive at 2M): 85%; Trypsin activity (%) (trypsin; additive at 4M): 71%
sodium 4-[(2-methyl-2 undecyl-1,3-dioxolan-4-yl)methyl]-1-propanesulfonate [ALS] | strong myoglobin signal | 99% | 87% |  | Time until the entire protein (myoglobin) was consumed (Glu-C): ≤ 50 min; Stability of the surfactant [2]: stable; Time until the entire protein (myoglobin) was consumed (Lys-C): ≤ 50 min; Effect on trypsin activity (in words) (trypsin; ALS added to the trypsin solution containing SDS): increase in trypsin activity
CO [Methanol] |  |  |  | 31% | 
CC#N [Acetonitrile] |  |  |  | 92% | 
CCCCCCCCCCCCOS(=O)(=O)[O-].[Na+] [SDS, sodium dodecylsulfate] | no signals due to myoglobin are observed | 20% | 1% |  | Effect on trypsin activity (in words) (trypsin; each of the percentages examined): inhibits trypsin activity
